{"source": "patent US20050112573A1", "about": "“Method of detecting toxic substance” (priority 2001, published 2005)", "system": "yeast genes (level of expressed mRNA)", "assay": "DNA chip analysis of expressed mRNA of yeast genes after 2 h culture with a toxic chemical substance", "assay_type": "cell-based, Saccharomyces cerevisiae S288C", "experimental": "Yeast (Saccharomyces cerevtisiae S288C (α SUC2mal mel gap2 CUP1)) were cultured at 25° C. on YPD medium (yeast extract 1%, polypepton 2%, glucose 2%). One of toxic chemical substances was added to the cell at logarithmic growth phase, and the cell was further cultured for two hours. Cell was cultured without any chemical substance in the same condition, and was used as control. Concentrations of the chemical substances were defined to inhibit the growth of the yeast but not lead to death.\nAfter the completion of cultivation, the culture was centrifuged to collect the cells. To the cells, sodium acetate buffer (50 mM sodium acetate, 10 mM EDTA, 1% SDS) was added, and the mixture was shaken at 65° C. for five minutes, followed by returning to room temperature, and obtaining the supernatant, which procedure was repeated two times. To the supernatant, ½ amount of a solution of phenol/chloroform was added, and the mixture was centrifuged to give a supernatant, which was added with an equal amount of chloroform, and the mixture was centrifuged to give a supernatant. To the supernatant, an equal amount of isopropanol containing 0.3 M sodium acetate was added, and the mixture was allowed to stand at room temperature for 30 minutes, after which the mixture was centrifuged to give a sediment of the whole RNAs. Seventy % ethanol was added to the sediment, and the mixture was again centrifuged to give a sediment, which was then dried and dissolved in water. mRNA was isolated from the whole RNAs as followings. In view of the fact that a poly A chain is attached to the 3′ terminus of mRNA, a polynucleotide having a poly T structure which was immobilized on the surface of latex beads was used to trap the mRNA, and then the mRNA was washed and eluted with spine column (Oligotex-dT30<Super>mRNA Purification Kit, Takara). Reverse transcription of the mRNA was conducted with a reverse transcriptase (Super Script II Reverse Transcriptase; catalogue No. 18064-014, GibcoBRL) using fluorescence-labeled nucleotides to give cDNAs that were introduced with Cy3-dUTP or Cy5-dUTP during the reverse transcription.\nThe labeled cDNAs were dissolved in TE buffer (10 mM Tris-HCl/1 mM EDTA, pH8.0), and the solution was dropped on the DNA chip containing the whole genes of yeast (DNA Chip Research Inc. Japan) so that the cDNAs were hybridized on the DNA chip at 65° C. for over 12 hours. The fluoresces intensity of the DNA chip was read with a scanner, and the ratio relative to the fluorescence intensity resulting from the absence of chemical substance was estimated as the following, which is shown in Tables 1 to 9: [formula]\nIn the Tables, “Intensity” indicated in the rightmost column is a value of the level of expressed mRNA of each gene in control cells as divided by the average level of the expressions of the whole genes."}
{"substance": "CdCl2 [(2)]", "values": [{"measurement": "The level of expressed mRNA in the presence of chemical substance/", "setting": "yeast gene YAL053W, ratio to control without chemical", "value": 0.9}, {"measurement": "The level of expressed mRNA in the presence of chemical substance/The level of expressed mRNA in the absence of chemical substance", "setting": "yeast gene YAR010C", "value": 1.2}, {"measurement": "The level of expressed mRNA in the presence of chemical substance/The level of expressed mRNA in the absence of chemical substance", "setting": "yeast gene YBL005W-A", "value": 0.9}, {"measurement": "The level of expressed mRNA in the presence of chemical substance/The level of expressed mRNA in the absence of chemical substance", "setting": "yeast gene YBL041W", "value": 1.4}, {"measurement": "The level of expressed mRNA in the presence of chemical substance/The level of expressed mRNA in the absence of chemical substance", "setting": "yeast gene YBL043W", "value": 1.2}, {"measurement": "The level of expressed mRNA in the presence of chemical substance/", "setting": "yeast gene YBL048W, ratio to control without chemical substance, 2 h culture", "value": 7.9}, {"measurement": "The level of expressed mRNA in the presence of chemical substance/The level of expressed mRNA in the absence of chemical substance", "setting": "yeast gene YBL078C", "value": 2.7}, {"measurement": "The level of expressed mRNA in the presence of chemical substance/", "setting": "yeast gene YBL107C, ratio to control without chemical substance, 2 h culture", "value": 1.1}, {"measurement": "The level of expressed mRNA in the presence of chemical substance/in the absence of chemical substance", "setting": "yeast gene YBR036C", "value": 1.7}, {"measurement": "The level of expressed mRNA in the presence of chemical substance/The level of expressed mRNA in the absence of chemical substance", "setting": "yeast gene YBR214W", "value": 2.1}, {"measurement": "The level of expressed mRNA in the presence of chemical substance/in the absence of chemical substance", "setting": "yeast gene YBR298C", "value": 1.0}, {"measurement": "The level of expressed mRNA in the presence of chemical substance/The level of expressed mRNA in the absence of chemical substance", "setting": "yeast gene YCL020W", "value": 2.5}, {"measurement": "The level of expressed mRNA in the presence of chemical substance/The level of expressed mRNA in the absence of chemical substance", "setting": "yeast gene YCL027W", "value": 2.0}, {"measurement": "The level of expressed mRNA in the presence of chemical substance/The level of expressed mRNA in the absence of chemical substance", "setting": "yeast gene YCR004C", "value": 1.0}, {"measurement": "The level of expressed mRNA in the presence of chemical substance/The level of expressed mRNA in the absence of chemical substance", "setting": "yeast gene YCR071C", "value": 0.7}, {"measurement": "The level of expressed mRNA in the presence of chemical substance/The level of expressed mRNA in the absence of chemical substance", "setting": "yeast gene YCR088W", "value": 1.1}, {"measurement": "The level of expressed mRNA in the presence of chemical substance/The level of expressed mRNA in the absence of chemical substance", "setting": "yeast gene YDL008W", "value": 1.0}, {"measurement": "The level of expressed mRNA in the presence of chemical substance/", "setting": "yeast gene YDL072C, ratio to control without chemical", "value": 1.1}, {"measurement": "The level of expressed mRNA in the presence of chemical substance/in the absence of chemical substance", "setting": "yeast gene YDL078C", "value": 1.1}, {"measurement": "The level of expressed mRNA in the presence of chemical substance/", "setting": "yeast gene YDL204W, ratio to control without chemical", "value": 1.9}, {"measurement": "The level of expressed mRNA in the presence of chemical substance/in the absence of chemical substance", "setting": "yeast gene YDL215C", "value": 1.5}, {"measurement": "The level of expressed mRNA in the presence of chemical substance/", "setting": "yeast gene YDL222C, ratio to control without chemical", "value": 1.1}, {"measurement": "The level of expressed mRNA in the presence of chemical substance/The level of expressed mRNA in the absence of chemical substance", "setting": "yeast gene YDL238C", "value": 1.0}, {"measurement": "The level of expressed mRNA in the presence of chemical substance/The level of expressed mRNA in the absence of chemical substance", "setting": "yeast gene YDR055W", "value": 2.1}, {"measurement": "The level of expressed mRNA in the presence of chemical substance/The level of expressed mRNA in the absence of chemical substance", "setting": "yeast gene YDR084C", "value": 0.9}, {"measurement": "The level of expressed mRNA in the presence of chemical substance/The level of expressed mRNA in the absence of chemical substance", "setting": "yeast gene YDR085C", "value": 1.8}, {"measurement": "The level of expressed mRNA in the presence of chemical substance/The level of expressed mRNA in the absence of chemical substance", "setting": "yeast gene YDR104C", "value": 1.1}, {"measurement": "The level of expressed mRNA in the presence of chemical substance/The level of expressed mRNA in the absence of chemical substance", "setting": "yeast gene YDR115W", "value": 0.9}, {"measurement": "The level of expressed mRNA in the presence of chemical substance/The level of expressed mRNA in the absence of chemical substance", "setting": "yeast gene YDR259C", "value": 1.0}, {"measurement": "The level of expressed mRNA in the presence of chemical substance/in the absence of chemical substance", "setting": "yeast gene YDR297W", "value": 0.8}, {"measurement": "The level of expressed mRNA in the presence of chemical substance/The level of expressed mRNA in the absence of chemical substance", "setting": "yeast gene YDR315C", "value": 1.4}, {"measurement": "The level of expressed mRNA in the presence of chemical substance/", "setting": "yeast gene YDR330W, ratio to control without chemical substance, 2 h culture", "value": 1.5}, {"measurement": "The level of expressed mRNA in the presence of chemical substance/The level of expressed mRNA in the absence of chemical substance", "setting": "yeast gene YDR358W", "value": 1.1}, {"measurement": "The level of expressed mRNA in the presence of chemical substance/in the absence of chemical substance", "setting": "yeast gene YDR387C", "value": 0.9}, {"measurement": "The level of expressed mRNA in the presence of chemical substance/The level of expressed mRNA in the absence of chemical substance", "setting": "yeast gene YDR388W", "value": 0.7}, {"measurement": "The level of expressed mRNA in the presence of chemical substance/", "setting": "yeast gene YDR411C, ratio to control without chemical substance, 2 h culture", "value": 2.8}, {"measurement": "The level of expressed mRNA in the presence of chemical substance/The level of expressed mRNA in the absence of chemical substance", "setting": "yeast gene YDR432W", "value": 0.8}, {"measurement": "The level of expressed mRNA in the presence of chemical substance/The level of expressed mRNA in the absence of chemical substance", "setting": "yeast gene YDR481C", "value": 2.3}, {"measurement": "The level of expressed mRNA in the presence of chemical substance/The level of expressed mRNA in the absence of chemical substance", "setting": "yeast gene YDR510W", "value": 1.3}, {"measurement": "The level of expressed mRNA in the presence of chemical substance/", "setting": "yeast gene YDR511W, ratio to control without chemical substance, 2 h culture", "value": 1.7}, {"measurement": "The level of expressed mRNA in the presence of chemical substance/", "setting": "yeast gene YDR545W, ratio to control without chemical substance, 2 h culture", "value": 1.2}, {"measurement": "The level of expressed mRNA in the presence of chemical substance/", "setting": "yeast gene YEL001C, ratio to control without chemical", "value": 1.0}, {"measurement": "The level of expressed mRNA in the presence of chemical substance/The level of expressed mRNA in the absence of chemical substance", "setting": "yeast gene YEL042W", "value": 0.9}, {"measurement": "The level of expressed mRNA in the presence of chemical substance/The level of expressed mRNA in the absence of chemical substance", "setting": "yeast gene YEL066W", "value": 2.9}, {"measurement": "The level of expressed mRNA in the presence of chemical substance/", "setting": "yeast gene YER004W, ratio to control without chemical substance, 2 h culture", "value": 1.5}, {"measurement": "The level of expressed mRNA in the presence of chemical substance/", "setting": "yeast gene YER035W, ratio to control without chemical substance, 2 h culture", "value": 1.6}, {"measurement": "The level of expressed mRNA in the presence of chemical substance/The level of expressed mRNA in the absence of chemical substance", "setting": "yeast gene YER039C", "value": 1.2}, {"measurement": "The level of expressed mRNA in the presence of chemical substance/", "setting": "yeast gene YER079W, ratio to control without chemical substance, 2 h culture", "value": 1.6}, {"measurement": "The level of expressed mRNA in the presence of chemical substance/", "setting": "yeast gene YER106W, ratio to control without chemical", "value": 0.7}, {"measurement": "The level of expressed mRNA in the presence of chemical substance/The level of expressed mRNA in the absence of chemical substance", "setting": "yeast gene YER107C", "value": 0.5}, {"measurement": "The level of expressed mRNA in the presence of chemical substance/The level of expressed mRNA in the absence of chemical substance", "setting": "yeast gene YER130C", "value": 1.6}, {"measurement": "The level of expressed mRNA in the presence of chemical substance/", "setting": "yeast gene YER158C, ratio to control without chemical substance, 2 h culture", "value": 0.9}, {"measurement": "The level of expressed mRNA in the presence of chemical substance/", "setting": "yeast gene YER163C, ratio to control without chemical substance, 2 h culture", "value": 2.4}, {"measurement": "The level of expressed mRNA in the presence of chemical substance/", "setting": "yeast gene YER175C, ratio to control without chemical substance, 2 h culture", "value": 1.2}, {"measurement": "The level of expressed mRNA in the presence of chemical substance/", "setting": "yeast gene YFL006W, ratio to control without chemical substance, 2 h culture", "value": 2.8}]}
